The values that follow are results of earlier work, collected in patent US20070082064A1, “Nutritional or dietary supplement for the treatment of macular degeneration” (priority 2005, published 2007).

Consider vitamin E, for which the risk of death entry (daily dose of 200 IU per day) is recorded as “no increased risk of death”. Further, the “risk of death higher than among those taking placebos” value (daily doses of 400 IU or more, meta-analysis of 19 trials, more than 136,000 patients) was “about 10%”.
